Source: paper PMC7083837 (Nature Communications, 2020)
Values joined by “and” are separate entries in the source; they are usually repeats but may differ in a detail not shown here. Identical values can stand only once.

Experiments:
SERT A486E-K490A = target: T1, SERT A486E-K490A (Homo sapiens, UniProt P31645, A486E/K490A); experiment: [3H]IMI dissociation rate assay; type: binding; settings: for [^3H]IMI dissociation relative to control (source data Fig 4B): A486E-K490A
T1 construct: expressed in transfected cells; host or cells: COS-7
Method: (§1) All mutations were confirmed by DNA sequencing. The used primers were
(§2) The allosteric potency was calculated as previously described.

SERT R104K = target: T2, SERT R104K (Homo sapiens, UniProt P31645, R104K); experiment: [3H]IMI dissociation rate assay; type: binding
T2 construct: expressed in transfected cells; host or cells: COS-7
Method: as §1, §2

SERT A486E = target: T3, SERT A486E (Homo sapiens, UniProt P31645, A486E); experiment: [3H]IMI dissociation rate assay; type: binding
T3 construct: expressed in transfected cells; host or cells: COS-7
Method: as §1, §2

SERT I179F = target: T4, SERT I179F (Homo sapiens, UniProt P31645, I179F); experiment: [3H]IMI dissociation rate assay; type: binding
T4 construct: expressed in transfected cells; host or cells: COS-7
Method: as §1, §2

SERT A331D = target: T5, SERT A331D (Homo sapiens, UniProt P31645, A331D); experiment: [3H]IMI dissociation rate assay; type: binding
T5 construct: expressed in transfected cells; host or cells: COS-7
Method: as §1, §2

SERT F556R = target: T6, SERT F556R (Homo sapiens, UniProt P31645, F556R); experiment: [3H]IMI dissociation rate assay; type: binding
T6 construct: expressed in transfected cells; host or cells: COS-7
Method: as §1, §2

SERT D328N = target: T7, SERT D328N (Homo sapiens, UniProt P31645, D328N); experiment: [3H]IMI dissociation rate assay; type: binding
T7 construct: expressed in transfected cells; host or cells: COS-7
Method: as §1, §2

SERT F556L = target: T8, SERT F556L (Homo sapiens, UniProt P31645, F556L); experiment: [3H]IMI dissociation rate assay; type: binding
T8 construct: expressed in transfected cells; host or cells: COS-7
Method: as §1, §2

SERT L406E = target: T9, SERT L406E (Homo sapiens, UniProt P31645, L406E); experiment: [3H]IMI dissociation rate assay; type: binding
T9 construct: expressed in transfected cells; host or cells: COS-7
Method: as §1, §2

[1] = tested on: extracellular 5-HT levels in rat hippocampus; experiment: Microdialysis in ventral hippocampus of freely moving rats; type: in vivo; parameters: extracellular 5-HT level / AUC: unit not given here;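 as to extracellular 5-HT level: percent of mean basal level in three fractions before perfusion start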

NC(=O)c1ccc2c(c1)CO[C@@]2(CCCN1CCC(c2ccc3ccc(=O)[nH]c3c2)CC1)c1ccc(F)cc1 [Lu AF60097, (S)-1-(4-fluorophenyl)-1-(3-(4-(2-oxo-1,2-dihydroquinolin-7-yl)piperidin-1-yl)propyl)-1,3-dihydroisobenzofuran-5-carboxamide]
[^3H]IMI dissociation relative to control (source data Fig 4B) (SERT A486E-K490A; log conc -7.34): 1 and 1.03 and 0.8514
[^3H]IMI dissociation relative to control (source data Fig 4B) (SERT A486E-K490A; log conc -7.817): 1.04 and 0.999 and 0.8949
IC50 (SERT A486E-K490A; SERT A486E-K490A, read-out: Lu AF60097 allosteric potency ([^3H]IMI dissociation IC50)): 2400 nM
ΔAP (mut/WT), change in allosteric potency relative to SERT WT (SERT R104K; R104K, [^3H]IMI dissociation): 19
[^3H]IMI dissociation relative to control (source data Fig 4B) (SERT R104K; R104K, log conc -5.91): 0.3316 and 0.2892 and 0.4871 and 0.3865
[^3H]IMI dissociation relative to control (source data Fig 4B) (SERT R104K; R104K, log conc -6.386): 0.5872 and 0.4706 and 0.6618 and 0.5459
[^3H]IMI dissociation relative to control (source data Fig 4B) (SERT R104K; R104K, log conc -6.863): 0.8956 and 0.6502 and 0.7387 and 0.7045
[^3H]IMI dissociation relative to control (source data Fig 4B) (SERT R104K; R104K, log conc -7.34): 1.0439 and 0.7759 and 0.8174 and 0.7536
[^3H]IMI dissociation relative to control (source data Fig 4B) (SERT R104K; R104K, log conc -7.817): 0.9753 and 0.7981 and 0.836 and 0.9683
IC50 (SERT R104K; SERT R104K (TM1), read-out: Lu AF60097 allosteric potency ([^3H]IMI dissociation IC50)): 630 nM
ΔAP (mut/WT), change in allosteric potency relative to SERT WT (SERT A486E; A486E, [^3H]IMI dissociation): 15
IC50 (SERT A486E; SERT A486E (TM10), read-out: Lu AF60097 allosteric potency ([^3H]IMI dissociation IC50)): 470 nM
ΔAP (mut/WT), change in allosteric potency relative to SERT WT (SERT I179F; I179F, [^3H]IMI dissociation): 14
[^3H]IMI dissociation relative to control (source data Fig 4B) (SERT I179F; I179F, log conc -7.817): 0.8727 and 0.9098
IC50 (SERT I179F; SERT I179F (TM3), read-out: Lu AF60097 allosteric potency ([^3H]IMI dissociation IC50)): 440 nM
ΔAP (mut/WT), change in allosteric potency relative to SERT WT (SERT A331D; A331D, [^3H]IMI dissociation): 293
[^3H]IMI dissociation relative to control (source data Fig 4B) (SERT A331D; A331D, log conc -4.478): 0.2078 and 0.1902 and 0.1898
[^3H]IMI dissociation relative to control (source data Fig 4B) (SERT A331D; A331D, log conc -4.955): 0.4404 and 0.4549 and 0.4274
[^3H]IMI dissociation relative to control (source data Fig 4B) (SERT A331D; A331D, log conc -5.432): 0.7451 and 0.6969 and 0.749
[^3H]IMI dissociation relative to control (source data Fig 4B) (SERT A331D; A331D, log conc -5.91): 0.8665 and 0.8882 and 0.9518
[^3H]IMI dissociation relative to control (source data Fig 4B) (SERT A331D; A331D, log conc -6.386): 0.9951 and 1.0052 and 1.0336
[^3H]IMI dissociation relative to control (source data Fig 4B) (SERT A331D; A331D, log conc -6.863): 1.0294 and 1.1129 and 0.9351
[^3H]IMI dissociation relative to control (source data Fig 4B) (SERT A331D; A331D, log conc -7.34): 0.9855 and 0.9441 and 1.0485
IC50 (SERT A331D; SERT A331D (TM6), read-out: Lu AF60097 allosteric potency ([^3H]IMI dissociation IC50)): 9.1 µM
ΔAP (mut/WT), change in allosteric potency relative to SERT WT (SERT F556R; F556R, [^3H]IMI dissociation): >300
Lu AF60097 allosteric potency ([^3H]IMI dissociation IC50) (SERT F556R; SERT F556R (TM11)): complete ablation of the allosteric potency
IC50 (SERT F556R; SERT F556R (TM11), read-out: Lu AF60097 allosteric potency ([^3H]IMI dissociation IC50)): ≥ 10 µM
ΔAP (mut/WT), change in allosteric potency relative to SERT WT (SERT D328N; D328N, [^3H]IMI dissociation): 1.7
IC50 (SERT D328N; SERT D328N (TM6), read-out: Lu AF60097 allosteric potency ([^3H]IMI dissociation IC50)): 54 nM
ΔAP (mut/WT), change in allosteric potency relative to SERT WT (SERT F556L; F556L, [^3H]IMI dissociation): 10
IC50 (SERT F556L; SERT F556L (TM11), read-out: Lu AF60097 allosteric potency ([^3H]IMI dissociation IC50)): 330 nM
ΔAP (mut/WT), change in allosteric potency relative to SERT WT (SERT L406E; L406E, [^3H]IMI dissociation): 21
[^3H]IMI dissociation relative to control (source data Fig 4B) (SERT L406E; L406E, log conc -5.91): 0.3505 and 0.3638 and 0.3072
[^3H]IMI dissociation relative to control (source data Fig 4B) (SERT L406E; L406E, log conc -6.386): 0.6157 and 0.6402 and 0.5827
[^3H]IMI dissociation relative to control (source data Fig 4B) (SERT L406E; L406E, log conc -6.863): 0.8533 and 0.8586 and 0.8107
[^3H]IMI dissociation relative to control (source data Fig 4B) (SERT L406E; L406E, log conc -7.34): 0.9622 and 0.9861 and 1.0073
[^3H]IMI dissociation relative to control (source data Fig 4B) (SERT L406E; L406E, log conc -7.817): 1.016 and 1.0012 and 1.0446
IC50 (SERT L406E; SERT L406E (EL4), read-out: Lu AF60097 allosteric potency ([^3H]IMI dissociation IC50)): 650 nM
Maximum extracellular 5-HT level, % of basal level ([1]; 1 µl (250 nM) injected in ventral hippocampus): 602 ± 156%
Hippocampal 5-HT level above saline ([1]; 1 µl of 250 nM injected locally, after 2 h): about 6 fold
extracellular 5-HT level ([1]; Fig 6A, time 0): 99.15 and 92.9 and 84.7 and 127.51 and 96.31 and 90.57
extracellular 5-HT level ([1]; Fig 6A, time -20): 99.13 and 103.53 and 109.41 and 104.22 and 103.69 and 101.06
extracellular 5-HT level ([1]; Fig 6A, time -40, single animals): 101.72 and 103.57 and 105.89 and 68.26 and 100 and 108.37
AUC ([1]; Fig 6B Inset, single animals): 160 and 33 and 22 and 96 and 107 and 114 and 155 and 78 and 140 and 79 and 75 and 81 and 29 and 143 and 77
extracellular 5-HT level ([1]; Fig 6B, Time -40, single animals): 98.41 and 131.26 and 120.63 and 87.45 and 121.36 and 138.4 and 108.61 and 82.38 and 85.26 and 67.86 and 55.86 and 116.12
